Data from patent US20260273072A1, “NOVEL PLK1 DEGRADATION INDUCING COMPOUND” (UPPTHERA, INC., priority 2023, published 2026).

How the values were obtained:
Type in all cases: cell-based
[1] = biological target: T1, PLK1 (Homo sapiens, UniProt P53350); test: Luciferase assay for PLK1 in HeLa LgBit (Plk1-HiBit KI) cell line; settings: 300 nM compound, luminescence after 9 hours
T1 construct: endogenous in cells; host or cells: HeLa LgBit (Plk1-HiBit KI): HeLa stably expressing LgBit, with a CRISPR/Cas9 knock-in of HiBit at the endogenous PLK1 locus
Outline: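 HeLa LgBit cells with endogenous PLK1 C-terminally HiBit-tagged by CRISPR knock-in; released from 24 h 2 mM thymidine block, seeded, grown 18 h. Compounds at 300 nM with Endurazine substrate; luminescence (470-480 nm) tracked in real time, expressed as ratio to DMSO.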

[2] = test system: NCI-H526 cell line; test: Cell viability assay for NCI-H526 cell line (EZ-Cytox); settings: Homo sapiens, NCI-H526, 120 h; H526 cells, 5 days, 3000 nM to 0.46 nM
Outline: (§1)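 Human SCLC lines cultured with compound for 5 days in a CO2 incubator; viability read by EZ-Cytox absorbance at 450 nm after 3 min shaking. IC50 reported in activity bins (A: <30 nM up to E: <400 nM).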

[3] = test system: NCI-H69 cell line; test: Cell viability assay for NCI-H69 cell line (EZ-Cytox); settings: Homo sapiens, NCI-H69, 120 h; H69 cells, 5 days, 3000 nM to 0.46 nM
Outline: as §1

[4] = test system: MRC-5 cell line; test: Cell viability assay for MRC-5 cell line (EZ-Cytox); settings: Homo sapiens, MRC5, 120 h; MRC-5 normal cell line, 5 days, 10000 nM to 1.52 nM; read-out: Activity: IC50 value, cell viability, MRC-5 cell line (Exemplary Compounds)
Method: 4. Cell Viability Assay for MRC-5 Cell Line
(1) Culture of MRC-5 Cell Line
The MRC-5 cell line was purchased from KCLB. Passage of cultured cells was maintained within P15.
(2) Treatment of Compounds of the Present Invention
Then, it was cultured in 37° C. CO2 incubator (Thermo Fisher Scientific) for 5 days.
(3) Cytotoxicity Experiment
CO2 incubator for 4 hours.

T1 sequence (P53350 whole entry): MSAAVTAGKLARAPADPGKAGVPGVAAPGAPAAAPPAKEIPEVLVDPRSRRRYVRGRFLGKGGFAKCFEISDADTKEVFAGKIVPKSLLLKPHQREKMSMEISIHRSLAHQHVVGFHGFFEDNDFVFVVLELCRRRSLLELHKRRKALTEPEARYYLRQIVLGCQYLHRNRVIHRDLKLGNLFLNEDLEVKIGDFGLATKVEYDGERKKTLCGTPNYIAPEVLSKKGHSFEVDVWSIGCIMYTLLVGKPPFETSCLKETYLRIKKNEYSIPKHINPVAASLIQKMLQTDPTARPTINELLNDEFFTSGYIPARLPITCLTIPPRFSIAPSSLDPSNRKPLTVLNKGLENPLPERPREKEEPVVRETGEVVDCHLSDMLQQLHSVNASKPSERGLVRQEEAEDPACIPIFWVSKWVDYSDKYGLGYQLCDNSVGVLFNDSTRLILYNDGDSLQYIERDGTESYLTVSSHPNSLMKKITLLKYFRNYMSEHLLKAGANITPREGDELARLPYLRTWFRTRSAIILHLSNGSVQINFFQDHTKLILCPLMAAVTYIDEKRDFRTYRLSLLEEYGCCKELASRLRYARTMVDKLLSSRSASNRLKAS

Activity: ratio of the luminescence value of compound treatment group to DMSO treatment group [1] | SMILES | IC50 [2] | IC50 [3] | IC50 [4]
+++ (+++: <0.3) | COc1cc(C(=O)NN2CCC(CCN3CCN(c4cc(OC)c(NC5CCC(=O)NC5=O)cc4F)CC3)CC2)ccc1Nc1ncc2c(n1)N(C1CCCC1)CC(F)(F)C(=O)N2C (stereo not drawn) [Compound 40, 4-((9-cyclopentyl-7,7-difluoro-5-methyl-6-oxo-6,7,8,9-tetrahydro-5H-pyrimido[4,5-b][1,4]diazepin-2-yl)amino)-N-(4-(2-(4-(4-((2,6-dioxopiperidin-3-yl)amino)-2-fluoro-5-methoxyphenyl)piperazin-1-yl)ethyl)piperidin-1-yl)-3-methoxybenzamide] | < 30 nM | < 30 nM | > 10 µM
++ (++: <0.5) | CCN1CC(F)(F)C(=O)N(C)c2cnc(Nc3ccc(C(=O)NN4CCC(CCN5CCN(c6cc(OC)c(NC7CCC(=O)NC7=O)cc6F)CC5)CC4)cc3OC)nc21 (stereo not drawn) [Compound 41, N(4-(2-(4-(4-((2,6-dioxopiperidin-3-yl)amino)-2-fluoro-5-methoxyphenyl)piperazin-1-yl)ethyl)piperidin-1-yl)-4-((9-ethyl-7,7-difluoro-5-methyl-6-oxo-6,7,8,9-tetrahydro-5H-pyrimido[4,5-b][1,4]diazepin-2-yl)amino)-3-methoxybenzamide] | < 30 nM | < 30 nM | > 10 µM
++ (++: <0.5) | COc1cc(C(=O)NN2CCC(CCN3CCN(c4cc(OC)c(NC5CCC(=O)NC5=O)cc4F)CC3)CC2)c(F)cc1Nc1ncc2c(n1)N(C1CCCC1)CC(F)(F)C(=O)N2C (stereo not drawn) [Compound 42, 4-((9-cyclopentyl-7,7-difluoro-5-methyl-6-oxo-6,7,8,9-tetrahydro-5H-pyrimido[4,5-b][1,4]diazepin-2-yl)amino)-N-(4-(2-(4-(4-((2,6-dioxopiperidin-3-yl)amino)-2-fluoro-5-methoxyphenyl)piperazin-1-yl)ethyl)piperidin-1-yl)-2-fluoro-5-methoxybenz amide] | < 30 nM | < 50 nM | > 10 µM
++ (++: <0.5) | COc1cc(C(=O)NN2CCC(CCN3CCN(c4cc(OC)c(NC5CCC(=O)NC5=O)cc4F)CC3)CC2)c(F)cc1Nc1ncc2c(n1)N(C(C)C)CC(F)(F)C(=O)N2C (stereo not drawn) [Compound 43, 4-((7,7-difluoro-9-isopropyl-5-methyl-6-oxo-6,7,8,9-tetrahydro-5H-pyrimido[4,5-b][1,4]diazepin-2-yl)amino)-N-(4-(2-(4-(4-((2,6-dioxopiperidin-3-yl)amino)-2-fluoro-5-methoxyphenyl)piperazin-1-yl)ethyl)piperidin-1-yl)-2-fluoro-5-methoxybenzamide] | < 30 nM | < 30 nM | > 10 µM
+++ (+++: <0.3) | COc1cc(N2CCN(CCC3CCN(NC(=O)c4ccc(Nc5ncc6c(n5)N(C5CCCC5)CC(F)(F)C(=O)N6C)c(OC)c4F)CC3)CC2)c(F)cc1NC1CCC(=O)NC1=O (stereo not drawn) [Compound 44, 4-((9-cyclopentyl-7,7-difluoro-5-methyl-6-oxo-6,7,8,9-tetrahydro-5H-pyrimido[4,5-b][1,4]diazepin-2-yl)amino)-N-(4-(2-(4-(4-((2,6-dioxopiperidin-3-yl)amino)-2-fluoro-5-methoxyphenyl)piperazin-1-yl)ethyl)piperidin-1-yl)-2-fluoro-3-methoxybenz amide] | < 50 nM | < 100 nM | > 10 µM
++ (++: <0.5) | COc1cc(N2CCN(CCC3CCN(NC(=O)c4cc(F)c(Nc5ncc6c(n5)N(C(C)C)CC(F)(F)C(=O)N6C)cc4OC)CC3)CC2)c(F)cc1NC1CCC(=O)NC1=O (stereo not drawn) [Compound 45, 4-((7,7-difluoro-9-isopropyl-5-methyl-6-oxo-6,7,8,9-tetrahydro-5H-pyrimido[4,5-b][1,4]diazepin-2-yl)amino)-N-(4-(2-(4-(4-((2,6-dioxopiperidin-3-yl)amino)-2-fluoro-5-methoxyphenyl)piperazin-1-yl)ethyl)piperidin-1-yl)-5-fluoro-2-methoxybenzamide] | < 200 nM | < 200 nM | > 10 µM
++ (++: <0.5) | COc1cc(C(=O)NN2CCC(CCN3CCN(c4cc(OC)c(NC5CCC(=O)NC5=O)cc4F)CC3)CC2)ncc1Nc1ncc2c(n1)N(C(C)C)CC(F)(F)C(=O)N2C (stereo not drawn) [Compound 46, 5-((7,7-difluoro-9-isopropyl-5-methyl-6-oxo-8H-pyrimido[4,5-b][1,4]diazepin-2-yl)amino)-N-(4-(2-(4-(4-((2,6-dioxo-3-piperidyl)amino)-2-fluoro-5-methoxy-phenyl)piperazin-1-yl)ethyl)-1-piperidyl)-4-methoxy-pyridine-2-carboxamide] | < 50 nM | < 100 nM | > 10 µM
++ (++: <0.5) | COc1cc(C(=O)NN2CCC(CCN3CCN(c4cc(OC)c(NC5CCC(=O)NC5=O)cc4F)CC3)CC2)ncc1Nc1ncc2c(n1)N(C1CCCC1)CC(F)(F)C(=O)N2C (stereo not drawn) [Compound 47, 5-((9-cyclopentyl-7,7-difluoro-5-methyl-6-oxo-6,7,8,9-tetrahydro-5H-pyrimido[4,5-b][1,4]diazepin-2-yl)amino)-N-(4-(2-(4-(4-((2,6-dioxopiperidin-3-yl)amino)-2-fluoro-5-methoxyphenyl)piperazin-1-yl)ethyl)piperidin-1-yl)-4-methoxypicolinamide] | < 50 nM | < 50 nM | > 10 µM
++ (++: <0.5) | COc1cc(C(=O)NC2CCN(CCN3CCN(c4cc(OC)c(NC5CCC(=O)NC5=O)cc4F)CC3)CC2)ccc1Nc1ncc2c(n1)N(C1CCCC1)CC(F)(F)C(=O)N2C (stereo not drawn) [Compound 48, 4-((9-cyclopentyl-7,7-difluoro-5-methyl-6-oxo-6,7,8,9-tetrahydro-5H-pyrimido[4,5-b][1,4]diazepin-2-yl)amino)-N-(1-(2-(4-(4-((2,6-dioxopiperidin-3-yl)amino)-2-fluoro-5-methoxyphenyl)piperazin-1-yl)ethyl)piperidin-4-yl)-3-methoxybenzamide] | < 30 nM | < 50 nM | > 10 µM
++ (++: <0.5) | COc1cc(C(=O)NC2CCN(CCN3CCN(c4cc(OC)c(NC5CCC(=O)NC5=O)cc4F)CC3)CC2)c(F)cc1Nc1ncc2c(n1)N(C1CCCC1)CC(F)(F)C(=O)N2C (stereo not drawn) [Compound 49, 4-((9-cyclopentyl-7,7-difluoro-5-methyl-6-oxo-6,7,8,9-tetrahydro-5H-pyrimido[4,5-b][1,4]diazepin-2-yl)amino)-N-(1-(2-(4-(4-((2,6-dioxopiperidin-3-yl)amino)-2-fluoro-5-methoxyphenyl)piperazin-1-yl)ethyl)piperidin-4-yl)-2-fluoro-5-methoxybenz amide] | < 30 nM | < 50 nM | > 10 µM
++ (++: <0.5) | COc1cc(C(=O)NC2CCN(CCC3CCN(c4cc(OC)c(NC5CCC(=O)NC5=O)cc4F)CC3)CC2)c(F)cc1Nc1ncc2c(n1)N(C(C)C)CC(F)(F)C(=O)N2C (stereo not drawn) [Compound 50, 4-((7,7-difluoro-9-isopropyl-5-methyl-6-oxo-6,7,8,9-tetrahydro-5H-pyrimido[4,5-b][1,4]diazepin-2-yl)amino)-N-(1-(2-(1-(4-((2,6-dioxopiperidin-3-yl)amino)-2-fluoro-5-methoxyphenyl)piperidin-4-yl)ethyl)piperidin-4-yl)-2-fluoro-5-methoxybenzamide] | < 50 nM | < 100 nM | > 10 µM
+++ (+++: <0.3) | COc1cc(C(=O)NC2CC3(CCN(CC4CCN(c5cc(OC)c(NC6CCC(=O)NC6=O)cc5F)CC4)CC3)C2)ccc1Nc1ncc2c(n1)N(C1CCCC1)CC(F)(F)C(=O)N2C (stereo not drawn) [Compound 51, 4-((9-cyclopentyl-7,7-difluoro-5-methyl-6-oxo-6,7,8,9-tetrahydro-5H-pyrimido[4,5-b][1,4]diazepin-2-yl)amino)-N-(7-((1-(4-((2,6-dioxopiperidin-3-yl)amino)-2-fluoro-5-methoxyphenyl)piperidin-4-yl)methyl)-7-azaspiro[3.5]nonan-2-yl)-3-methoxybenzamide] | < 30 nM | < 30 nM | > 10 µM
